From patent US7901893B2, “NPC1L1 (NPC3) and methods of identifying ligands thereof” (Merck Sharp & Dohme Corp., priority 2004, dated 2011)
pKd, pKi: −log10 of the molar value.

How the values were obtained:
human NPC1L1 = molecular target: T1, human NPC1L1 (Homo sapiens, UniProt Q9UHC9, G1187D/M616T/T1073A); test: ^35S-2 competition binding, human NPC1L1 transfected CHO cells; set-up: expressed in transfected cells; host or cells: CHO cells (pCDNA3, XbaI/NotI fragment); details: for pKd: 5 nM ^35S-2, 2 hours at 37° C., read-out: affinity (Kd) for human recombinant NPC1L1
T1 sequence (Q9UHC9 22-1332 isoform Q9UHC9-2 M616T/T1046A/G1160D limits assumed): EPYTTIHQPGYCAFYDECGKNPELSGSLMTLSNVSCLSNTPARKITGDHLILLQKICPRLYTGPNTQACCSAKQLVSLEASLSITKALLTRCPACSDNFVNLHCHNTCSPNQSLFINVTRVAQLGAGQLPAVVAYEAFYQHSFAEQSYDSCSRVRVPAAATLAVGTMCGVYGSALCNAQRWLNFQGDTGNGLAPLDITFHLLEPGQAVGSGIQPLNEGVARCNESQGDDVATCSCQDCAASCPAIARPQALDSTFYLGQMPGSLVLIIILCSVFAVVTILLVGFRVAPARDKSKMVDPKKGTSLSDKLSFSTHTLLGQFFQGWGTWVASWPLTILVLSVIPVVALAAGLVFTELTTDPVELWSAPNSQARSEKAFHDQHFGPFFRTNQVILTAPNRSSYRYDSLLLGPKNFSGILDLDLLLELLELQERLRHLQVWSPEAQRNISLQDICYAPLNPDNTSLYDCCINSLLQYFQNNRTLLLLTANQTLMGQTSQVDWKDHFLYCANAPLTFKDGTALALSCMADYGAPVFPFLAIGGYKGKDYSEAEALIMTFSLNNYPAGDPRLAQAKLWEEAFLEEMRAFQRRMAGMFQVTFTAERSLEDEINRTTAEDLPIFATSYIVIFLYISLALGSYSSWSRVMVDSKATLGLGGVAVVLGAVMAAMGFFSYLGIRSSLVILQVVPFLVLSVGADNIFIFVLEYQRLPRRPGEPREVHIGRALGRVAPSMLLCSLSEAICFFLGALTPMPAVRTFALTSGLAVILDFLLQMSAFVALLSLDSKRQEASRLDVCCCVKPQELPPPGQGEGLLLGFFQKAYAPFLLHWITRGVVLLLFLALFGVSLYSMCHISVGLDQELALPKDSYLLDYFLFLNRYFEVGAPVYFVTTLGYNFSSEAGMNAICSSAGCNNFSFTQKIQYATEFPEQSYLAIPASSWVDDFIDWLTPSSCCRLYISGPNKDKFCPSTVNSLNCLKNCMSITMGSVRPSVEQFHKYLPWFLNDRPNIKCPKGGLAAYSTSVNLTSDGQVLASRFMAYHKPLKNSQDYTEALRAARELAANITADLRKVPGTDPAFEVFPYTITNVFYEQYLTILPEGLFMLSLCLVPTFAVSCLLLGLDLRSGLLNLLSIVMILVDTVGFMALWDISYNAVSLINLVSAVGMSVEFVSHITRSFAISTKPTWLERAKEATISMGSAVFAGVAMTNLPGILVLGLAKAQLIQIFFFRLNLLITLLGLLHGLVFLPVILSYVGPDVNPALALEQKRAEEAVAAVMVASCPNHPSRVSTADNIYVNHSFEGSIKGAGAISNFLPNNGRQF
Description: Human NPC1L1 transfected CHO cells (˜600,000 cells/assay) were incubated with 5 nM ^35S-2 (˜1 million dpm/assay) in buffer A for 2 hours at 37° C. in the absence or presence of increasing concentrations of EZE-glucuronide (compound 1), compounds 2, 3, 5, 6, or 8.

[1] = molecular target: T2, rhesus brush border membrane vesicles (Macaca mulatta, UniProt A0MJA5); test: biochemical
T2 sequence (A0MJA5 1-1332): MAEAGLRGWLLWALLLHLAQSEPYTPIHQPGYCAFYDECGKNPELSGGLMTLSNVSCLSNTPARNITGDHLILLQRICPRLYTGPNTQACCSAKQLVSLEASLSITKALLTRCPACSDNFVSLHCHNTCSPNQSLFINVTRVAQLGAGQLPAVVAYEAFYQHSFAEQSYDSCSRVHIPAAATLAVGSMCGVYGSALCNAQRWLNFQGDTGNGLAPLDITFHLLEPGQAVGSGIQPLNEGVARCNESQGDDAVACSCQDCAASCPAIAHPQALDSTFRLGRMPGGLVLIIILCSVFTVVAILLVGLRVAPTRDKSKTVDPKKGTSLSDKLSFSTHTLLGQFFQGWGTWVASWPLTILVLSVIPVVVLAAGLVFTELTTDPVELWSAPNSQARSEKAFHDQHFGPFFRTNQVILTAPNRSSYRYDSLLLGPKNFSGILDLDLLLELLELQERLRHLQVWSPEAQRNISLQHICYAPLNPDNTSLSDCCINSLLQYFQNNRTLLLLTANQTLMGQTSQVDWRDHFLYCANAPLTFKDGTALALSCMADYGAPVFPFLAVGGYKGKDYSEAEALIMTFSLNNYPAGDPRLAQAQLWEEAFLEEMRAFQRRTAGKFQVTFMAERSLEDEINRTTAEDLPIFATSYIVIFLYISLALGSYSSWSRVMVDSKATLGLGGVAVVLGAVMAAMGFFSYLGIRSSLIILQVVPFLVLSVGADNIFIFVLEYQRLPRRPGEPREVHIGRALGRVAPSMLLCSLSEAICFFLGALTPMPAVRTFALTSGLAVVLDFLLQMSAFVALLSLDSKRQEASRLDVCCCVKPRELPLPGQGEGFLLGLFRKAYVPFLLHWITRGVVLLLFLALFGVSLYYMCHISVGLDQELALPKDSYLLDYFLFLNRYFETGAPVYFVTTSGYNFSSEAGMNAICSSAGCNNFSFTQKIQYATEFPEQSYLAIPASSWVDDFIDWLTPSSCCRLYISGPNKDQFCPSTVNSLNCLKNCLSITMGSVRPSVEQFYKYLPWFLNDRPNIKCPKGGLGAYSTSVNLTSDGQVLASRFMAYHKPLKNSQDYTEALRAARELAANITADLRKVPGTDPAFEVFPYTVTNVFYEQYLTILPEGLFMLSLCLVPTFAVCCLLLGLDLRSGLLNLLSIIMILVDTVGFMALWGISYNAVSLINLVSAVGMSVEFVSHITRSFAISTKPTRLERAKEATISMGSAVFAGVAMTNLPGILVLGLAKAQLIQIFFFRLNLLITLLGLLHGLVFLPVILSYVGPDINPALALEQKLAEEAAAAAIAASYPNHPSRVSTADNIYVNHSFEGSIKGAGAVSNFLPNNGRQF
Description: The intestines from freshly sacrificed animals were cut into segments, perfused with ice-cold saline buffer (Buffer A: 26 mM NaHCO3, 0.96 mM NaH2PO4, 5 mM HEPES, 5.5 mM glucose, 117 mM NaCl, 5.4 mM KCl, pH=7.4), placed on cold glass plates, opened longitudinally, and the mucosa scraped with glass microscope slips. This mucosa could be used fresh or frozen with identical results. To prepare the membranes, the mucosal scrapings were resuspended in 20 volumes of cold buffer consisting of 300 mM D-mannitol, 5 mM EGTA, 12 mM Tris, pH 7.4 with HCl, and containing 0.1 mM PMSF and a 1% dilution of a protease inhibitor cocktail (set 1, Calbiochem). They were homogenized using a Polytron at medium speed on ice until inspection with a microscope indicated complete cell lysis. Then, solid MgCl2 was added slowly with stirring to a final concentration of 10 mM, and the solution was kept stirring on ice for 15 min. Cellular debris was removed by centrifugation for 15 min at 3,000 g, and the membranes were recovered by centrifugation for 60 min at 48,000 g. The membranes were further rinsed by re-suspension in a buffer containing 50 mM D-mannitol, 5 mM EGTA, and 2 mM Tris at pH 7.40, and centrifugation for 60 min at 48,000 g. The final pellet was resuspended in 120 mM NaCl and 20 mM Tris at pH 7.40 to a concentration of ˜10-20 mg protein/ml, aliquoted, frozen in liquid nitrogen, and stored at −80 C. The activity was stable indefinitely and could be freeze-thawed with minimal loss of activity.
Binding assay. Assays were conducted in 12×75 mm glass test tubes and total volume 20-100 ul. In general, frozen membranes were diluted in buffer A or buffer A containing 0.03% taurocholate and 0.05% digitonin to a final concentration of 0.02 to 5 mg/ml. […] Competing ligands were likewise added as DMSO solutions to give a total 2-10% organic solvent content. […] At least 2 components of buffer A, the bicarbonate and phosphate salts, were later found to be inconsequential and were routinely omitted.
Bound ligand was quantified by single-tube vacuum filtration using GF/C glass fiber filters. […] Filtration was accomplished by adding 2.5 ml of ice cold buffer (120 mM NaCl, 0.1% sodium cholate, and 20 mM MES at pH 6.70) to the assay tube, pouring the mixture through the filter, and then rinsing the tube and filter twice more with another 2×2.5 ml buffer. The filters were counted in 7 ml vials using Packard DM liquid scintillation fluid.
Data analysis. Data from saturation experiments were subjected to a Scatchard analysis, and linear regression was performed to yield the equilibrium dissociation constant (Kd) and maximum receptor concentration (Bmax). […] Data from competition experiments were analyzed and IC50 values determined from Hill plots of the binding data.

potency relative to ezetimibe glucuronide (1) (human NPC1L1; human recombinant NPC1L1) | SMILES | pKd (human NPC1L1) | pKi [1]
 | O=C(O)[C@H]1O[C@@H](Oc2ccc([C@@H]3[C@@H](CC[C@H](O)c4ccc(F)cc4)C(=O)N3c3ccc(F)cc3)cc2)[C@H](O)[C@@H](O)[C@@H]1O [Compound 1, Ezetimibe glucuronide] | 6.04 | 7.41
approximately 50 fold | CS(=O)(=O)NCC#Cc1ccc(N2C(=O)[C@H](CC[C@H](O)c3ccc(F)cc3)[C@H]2c2ccc(O[C@@H]3O[C@H](C(=O)O)[C@@H](O)[C@H](O)[C@H]3O)cc2)cc1 [Compound 2, 4-[(2S,3R)-3-[(3S)-3 (4-fluorophenyl)-3-hydroxypropyl]-1-(4-{3-[(methylsulfonyl)amino]prop-1-yn-1-yl}phenyl)-4-oxoazetidin-2-yl]phenyl β-D-glucopyranosiduronic acid] | 7.68 | 7.42
